The structures appear in SMILES notation.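 Dose response: 5 concentrations. Exposure: 48 h. Format: 96-well plates. Endpoint: linear interpolation; highest concentration if not reached. Abbreviation: GI50, concentration required for 50% inhibition of growth. The concentration for full growth arrest is given as TGI.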 *1 amine or outer side, *2 acyl side, *3 side chain or, on linkers, in order; H or OH if unused. Where a SMILES comes first, the peptide text is derived from it. [ ]: non-standard residue; d: D form. ξ: configuration not given here. X21 = CC[C@@H](C)C(N[*:1])C(=O)[*:2]; ξR = N=C(N)NCCCC(N)C(=O)O; ξI = CCC(C)C(N)C(=O)O; ξL = CC(C)CC(N)C(=O)O; ξK = NCCCCC(N)C(=O)O; ξV = CC(C)C(N)C(=O)O; ξA = CC(N)C(=O)O Where only a bound is given, the exact number is not on record here.

Test systems include BT-549 breast; DU-145 prostate; HCC-2998 colon; HL-60(TB) leukemia; IGROV1 ovarian; KM12 colon; LOX IMVI melanoma; NCI-H23 lung; NCI/ADR-RES ovarian; UACC-62 melanoma.
Assay in all cases: NCI tumour cell line growth inhibition, 48 h

Take `COc1ccc2c(c1)/C(=N/OC(C)=O)c1c-2c(=O)[nH]c2ccccc12`: the GI50 was 7.99 µM with BT-549 breast; 10.6 µM with DU-145 prostate; 3.29 µM in the assay on HCC-2998 colon; 1.83 µM with HL-60(TB) leukemia; 1.52 µM in the assay with IGROV1 ovarian; 3.84 µM with KM12 colon. In addition, the GI50 with LOX IMVI melanoma was 14.8 µM; in the assay on NCI-H23 lung, 2.34 µM; in the assay with NCI/ADR-RES ovarian, 2.83 µM; in the assay with UACC-62 melanoma, 16.6 µM. For the same molecule, the TGI was found to be 24.1 µM in the assay with BT-549 breast; 25.3 µM in the assay with DU-145 prostate; 13.5 µM in the assay on HCC-2998 colon; 4.88 µM in the assay on HL-60(TB) leukemia; 11.8 µM in the assay on IGROV1 ovarian; 19.6 µM in the assay on KM12 colon. The TGI was 29.4 µM in the assay with LOX IMVI melanoma, 16.2 µM with NCI-H23 lung, 17.9 µM with NCI/ADR-RES ovarian and 30.4 µM with UACC-62 melanoma.

As for `N#C/C(=C\c1ccc(Br)cc1)n1nnc2ccccc21`, the GI50 is 0.566 µM in the assay on BT-549 breast; 1.23 µM in the assay on DU-145 prostate; 1.51 µM with HCC-2998 colon; 0.287 µM with HL-60(TB) leukemia; 0.317 µM in the assay on IGROV1 ovarian; 0.512 µM with KM12 colon. The GI50 in the assay with LOX IMVI melanoma is 0.319 µM; with NCI-H23 lung it was 1.44 µM; in the assay on NCI/ADR-RES ovarian, 0.323 µM; with UACC-62 melanoma it was 0.358 µM. For the same molecule, the TGI is 4.85 µM in the assay with BT-549 breast; 3.31 µM in the assay with DU-145 prostate; 3.34 µM in the assay with HCC-2998 colon; 2.04 µM with HL-60(TB) leukemia; 1.43 µM in the assay with IGROV1 ovarian; 2.33 µM with KM12 colon. The TGI in the assay with LOX IMVI melanoma was 1.19 µM; in the assay with NCI-H23 lung it was 4.2 µM; in the assay on NCI/ADR-RES ovarian it was 11 µM; in the assay on UACC-62 melanoma it was 1.59 µM.

As for `OCC(O)C(O)C(O)/C=N/Nc1nc2ccccc2nc1-c1ccccc1` (stereo not given), the GI50 in the assay with BT-549 breast is more than 100 µM; in the assay on DU-145 prostate, more than 100 µM; in the assay with HCC-2998 colon, 91.2 µM; in the assay on HL-60(TB) leukemia it was 5.15 µM; in the assay on IGROV1 ovarian it was 57.4 µM; in the assay with KM12 colon, more than 100 µM. Also, the GI50 was 72.2 µM in the assay with LOX IMVI melanoma, more than 100 µM with NCI-H23 lung, 45.9 µM in the assay with NCI/ADR-RES ovarian and 67.3 µM in the assay with UACC-62 melanoma. Also, the TGI with BT-549 breast, in the assay on DU-145 prostate, with HCC-2998 colon, in the assay with HL-60(TB) leukemia, with IGROV1 ovarian and with KM12 colon was more than 100 µM throughout. For the same molecule, the TGI with LOX IMVI melanoma, in the assay with NCI-H23 lung, in the assay with NCI/ADR-RES ovarian and in the assay with UACC-62 melanoma was more than 100 µM each time.

`CN1CCN(c2ccc(C(=O)Nc3cc(-c4cccc(NS(=O)(=O)c5ccccc5)c4)[nH]n3)cc2)CC1`: the GI50 in the assay with BT-549 breast was 9.38 µM; in the assay on DU-145 prostate, 8.52 µM; in the assay with HCC-2998 colon it was 11.2 µM; with HL-60(TB) leukemia it was 3.94 µM; in the assay on IGROV1 ovarian it was 2.64 µM; with KM12 colon, 0.0293 µM. The GI50 in the assay on LOX IMVI melanoma is 3.05 µM; in the assay on NCI-H23 lung, 11.6 µM; in the assay with NCI/ADR-RES ovarian, more than 100 µM; in the assay on UACC-62 melanoma, 11 µM. For the same molecule, the TGI was found to be 26.3 µM in the assay on BT-549 breast; 21.2 µM in the assay on DU-145 prostate; 24.3 µM in the assay on HCC-2998 colon; 16.1 µM in the assay on HL-60(TB) leukemia; 21.9 µM with IGROV1 ovarian; 13.8 µM in the assay on KM12 colon. In addition, the TGI was 13.2 µM with LOX IMVI melanoma, 35.2 µM in the assay on NCI-H23 lung, more than 100 µM with NCI/ADR-RES ovarian and 23.4 µM in the assay with UACC-62 melanoma.

In the case of `CCC(C)C1NC(=O)C(CC(C)C)NC(=O)C(C)NC(=O)C(C(C)C)NC(=O)C(CCCCN)NC(=O)C(CC(C)C)NC(=O)C(C(C)C)NC(=O)[C@H](C)NC(=O)C(C(C)CC)NC(=O)C(CCCN=C(N)N)NC(=O)C(CCCCN)NC(=O)C(CCCN=C(N)N)NC(=O)C(CCCCN)NC(=O)C([C@H](C)CC)NC(=O)C(CCCCN)NC1=O` (stereo not given in full) (cyclo(A[ξV][ξL][ξK][ξV][ξA][ξL][ξI][ξK][X21][ξK][ξR][ξK][ξR][ξI])), the GI50 with BT-549 breast was 1.56 µM; with DU-145 prostate, 1.81 µM; with HCC-2998 colon it was 1.83 µM; in the assay on HL-60(TB) leukemia, 1.77 µM; in the assay on IGROV1 ovarian, 1.62 µM; with KM12 colon, 1.73 µM. The GI50 in the assay on LOX IMVI melanoma was 1.62 µM; in the assay on NCI-H23 lung it was 0.43 µM; in the assay on NCI/ADR-RES ovarian it was 1.06 µM; in the assay with UACC-62 melanoma it was 1.26 µM. Moreover, the TGI stood at 3.42 µM with BT-549 breast; 4.75 µM in the assay with DU-145 prostate; 4.22 µM in the assay on HCC-2998 colon; 4.44 µM with HL-60(TB) leukemia; 4.55 µM in the assay with IGROV1 ovarian; 3.9 µM in the assay with KM12 colon. Besides, the TGI with LOX IMVI melanoma worked out at 3.03 µM; with NCI-H23 lung, 2.22 µM; in the assay on NCI/ADR-RES ovarian it was 3.84 µM; with UACC-62 melanoma it was 2.85 µM.

Regarding `COc1ccc2c(c1)C1(C(=O)N2)C(C#N)=C(c2ccccc2)Nc2c1c(-c1ccccc1)nn2-c1ccccc1` (stereo not given), the GI50 with BT-549 breast is 2.28 µM; with DU-145 prostate, 2.71 µM; in the assay on HCC-2998 colon it was 3.51 µM; in the assay with HL-60(TB) leukemia, 3.68 µM; with IGROV1 ovarian, 3.57 µM; in the assay with KM12 colon, 2.66 µM. Besides, the GI50 with LOX IMVI melanoma was 1.81 µM; in the assay on NCI-H23 lung, 2.51 µM; in the assay with NCI/ADR-RES ovarian, 31.9 µM; with UACC-62 melanoma, 5.36 µM. For the same molecule, the TGI with BT-549 breast is 8.03 µM; with DU-145 prostate, 6.82 µM; in the assay with HCC-2998 colon, 12.5 µM; with HL-60(TB) leukemia it was 15.4 µM; in the assay with IGROV1 ovarian, 16.4 µM; with KM12 colon, 7.26 µM. Moreover, the TGI with LOX IMVI melanoma is 3.51 µM; in the assay with NCI-H23 lung, 7.51 µM; in the assay on NCI/ADR-RES ovarian, more than 100 µM; with UACC-62 melanoma, 18.2 µM.
